# According to patent publication US11382918B2, “Methods for treating Huntington's Disease” (PTC Therapeutics, Inc., priority 2017, dated 2022):
# Counter-ions that a name gives are not always drawn.
# System: Endogenous Huntingtin Protein (HTT)
# Assay: Endogenous Huntingtin Protein Assay (ELISA-based MSD electrochemiluminescence)
# Assay type: cell-based
# Details: Table 1
# Protocol: Compounds of Formula (I) were tested using the Meso Scale Discovery (MSD) Assay provided in International Application No. PCT/US2016/066042, filed on Dec. 11, 2016 and claiming priority to U.S. Provisional Application 62/265,652 filed on Dec. 10, 2015, published as International Publication No. WO 2017/100726 on Jun. 15, 2017, the entire contents of which are incorporated herein by reference.
# The Endogenous Huntingtin Protein assay used in Example 1 was developed using the ELISA-based MSD electrochemiluminescence assay platform.
# Endogenous Huntingtin Protein Assay
# Meso Scale Discovery (MSD) 96-well or 384-well plates were coated overnight at 4° C. with MW1 (expanded polyglutamine) or MAB2166 monoclonal antibody (for capture) at a concentration of 1 μg/mL in PBS (30 μL per well). Plates were then washed three times with 300 µL wash buffer (0.05% Tween-20 in PBS) and blocked (100 μL blocking buffer; 5% BSA in PBS) for 4-5 hours at room temperature with rotational shaking and then washed three times with wash buffer.
# Samples (25 μL) were transferred to the antibody-coated MSD plate and incubated overnight at 4° C. After removal of the lysates, the plate was washed three times with wash buffer, and 25 μL of #5656S (Cell signaling; rabbit monoclonal) secondary antibody (diluted to 0.25 μg/mL in 0.05% Tween-20 in blocking buffer) was added to each well and incubated with shaking for 1 Hour at room temperature. Following incubation with the secondary antibody, the wells were rinsed with wash buffer after which 25 μL of goat anti-rabbit SULFO TAG secondary detection antibody (required aspect of the MSD system) (diluted to 0.25 μg/mL in 0.05% Tween-20 in blocking buffer) was added to each well and incubated with shaking for 1 hour at room temperature. After rinsing three times with wash buffer, 150 μL of read buffer T with surfactant (MSD) were added to each empty well, and the plate was imaged on a SI 6000 imager (MSD) according to manufacturers' instructions provided for 96- or 384-well plates.
row,SMILES,IC50 [nM]
1,"CCN1CC=C(c2ccc3nc(-c4cc5c(C)nc(C)cn5n4)cc(=O)n3c2)CC1 [compound 351, 2-(4,6-dimethylpyrazolo[1,5-a]pyrazin-2-yl)-7-(1-ethyl-1,2,3,6-tetrahydropyridin-4-yl)-4H-pyrido[1,2-a]pyrimidin-4-one]",3000 to 33000
2,"Cc1cn2nc(-c3cc(=O)n4cc(C5=CCN(C6CCC6)CC5)ccc4n3)cc2c(C)n1 [compound 356, 7-(1-cyclobutyl-1,2,3,6-tetrahydropyridin-4-yl)-2-(4,6-dimethylpyrazolo[1,5-a]pyrazin-2-yl)-4H-pyrido[1,2-a]pyrimidin-4-one]",3000 to 33000
3,"Cc1cn2nc(-c3cc(=O)n4cc(N5C[C@@H]6C[C@H]5CN6C)ccc4n3)cc2c(C)n1 [compound 400, 2-(4,6-dimethylpyrazolo[1,5-a]pyrazin-2-yl)-7-[(1S,4S)-5-methyl-2,5-diazabicyclo[2.2.1]hept-2-yl]-4H-pyrido[1,2-a]pyrimidin-4-one]",3000 to 33000
4,"CCN1C[C@@H]2C[C@H]1CN2c1ccc2nc(-c3cc4c(C)nc(C)cn4n3)cc(=O)n2c1 [compound 401, 2-(4,6-dimethylpyrazolo[1,5-a]pyrazin-2-yl)-7-[(1S,4S)-5-ethyl-2,5-diazabicyclo[2.2.1]hept-2-yl]-4H-pyrido[1,2-a]pyrimidin-4-one]",3000 to 33000
5,"Cc1cn2cc(-c3ccc4nc(C5CCNCC5)cc(=O)n4c3)ccc2n1 [compound 409, 7-(2-methylimidazo[1,2-a]pyridin-6-yl)-2-(piperidin-4-yl)-4H-pyrido[1,2-a]pyrimidin-4-one]",1000 to 3000
6,"Cc1cn2cc(-c3ccc4nc(C5CCNCC5)cc(=O)n4c3)cc(F)c2n1 [compound 410, 7-(8-fluoro-2-methylimidazo[1,2-a]pyridin-6-yl)-2-(piperidin-4-yl)-4H-pyrido[1,2-a]pyrimidin-4-one]",500 to 1000
7,"Cc1cn2cc(-c3cc(=O)n4cc(N5CCN(C6CC6)CC5)ccc4n3)cc(F)c2n1 [compound 412, 7-(4-cyclopropylpiperazin-1-yl)-2-(8-fluoro-2-methylimidazo[1,2-a]pyridin-6-yl)-4H-pyrido[1,2-a]pyrimidin-4-one]",3000 to 33000
8,"Cc1cn2cc(-c3cc(=O)n4cc(C5=CCNCC5)ncc4n3)cc2c(C)n1 [compound 413, 2-(1,3-dimethylpyrrolo[1,2-a]pyrazin-7-yl)-7-(1,2,3,6-tetrahydropyridin-4-yl)-4H-pyrazino[1,2-a]pyrimidin-4-one hydrochloride (1:2)]",< 100
9,"Cc1cn2nc(-c3cc(=O)n4cc(N5CCNCC5)ccc4n3)cc2cn1 [compound 420, 2-(6-methylpyrazolo[1,5-a]pyrazin-2-yl)-7-(piperazin-1-yl)-4H-pyrido[1,2-a]pyrimidin-4-one]",1000 to 3000
10,"Cc1nc2ccc(-c3cc(=O)n4cc(C5=CCNCC5)ncc4n3)cc2o1 [compound 421, 2-(2-methyl-1,3-benzoxazol-6-yl)-7-(1,2,3,6-tetrahydropyridin-4-yl)-4H-pyrazino[1,2-a]pyrimidin-4-one hydrochloride(1:1)]",3000 to 33000
11,"Cc1nc2ccc(-c3cc(=O)n4cc(C5=CCN(C)CC5)ncc4n3)cc2o1 [compound 422, 2-(2-methyl-1,3-benzoxazol-6-yl)-7-(1-methyl-1,2,3,6-tetrahydropyridin-4-yl)-4H-pyrazino[1,2-a]pyrimidin-4-one]",100 to 500
12,"CCN1CC=C(c2cn3c(=O)cc(-c4ccc5nc(C)oc5c4)nc3cn2)CC1 [compound 423, 7-(1-ethyl-1,2,3,6-tetrahydropyridin-4-yl)-2-(2-methyl-1,3-benzoxazol-6-yl)-4H-pyrazino[1,2-a]pyrimidin-4-one]",3000 to 33000
13,"Cc1cn2nc(-c3cc(=O)n4cc(N5CCC(N6CCOCC6)CC5)ccc4n3)cc2c(C)n1 [compound 428, 2-(4,6-dimethylpyrazolo[1,5-a]pyrazin-2-yl)-7-[4-(morpholin-4-yl)piperidin-1-yl]-4H-pyrido[1,2-a]pyrimidin-4-one]",3000 to 33000
14,"CN(C)c1ccc(-c2cc(=O)n3cc(C4=CCNCC4)ccc3n2)cn1 [compound 444, 2-[6-(dimethylamino)pyridin-3-yl]-7-(1,2,3,6-tetrahydropyridin-4-yl)-4H-pyrido[1,2-a]pyrimidin-4-one]",3000 to 33000
15,"CN1CC=C(c2ccc3nc(-c4ccc(N(C)C)nc4)cc(=O)n3c2)CC1 [compound 450, 2-[6-(dimethylamino)pyridin-3-yl]-7-(1-methyl-1,2,3,6-tetrahydropyridin-4-yl)-4H-pyrido[1,2-a]pyrimidin-4-one]",3000 to 33000
16,"CCN1CC=C(c2ccc3nc(-c4ccc5c(cnn5C)c4)cc(=O)n3c2)CC1 [compound 463, 7-(1-ethyl-1,2,3,6-tetrahydropyridin-4-yl)-2-(1-methyl-1H-indazol-5-yl)-4H-pyrido[1,2-a]pyrimidin-4-one]",3000 to 33000

# More lines, now with the values ahead:
row,IC50 [nM],SMILES
1,500 to 1000,"Cc1cn2cc(-c3cc(=O)n4cc(C5CCNCC5)ccc4n3)ccc2n1 [compound 438, 2-(2-methylimidazo[1,2-a]pyridin-6-yl)-7-(piperidin-4-yl)-4H-pyrido[1,2-a]pyrimidin-4-one]"
2,1000 to 3000,"Cc1cn2nc(-c3cc(=O)n4cc(N5CCN[C@@H](C)C5)ccc4n3)cc2cn1 [compound 441, 7-[(3S)-3-methylpiperazin-1-yl]-2-(6-methylpyrazolo[1,5-a]pyrazin-2-yl)-4H-pyrido[1,2-a]pyrimidin-4-one]"
3,3000 to 33000,"Cc1cn2nc(-c3cc(=O)n4cc(N5C[C@@H](C)N[C@@H](C)C5)ccc4n3)cc2cn1 [compound 442, 7-[(3R,5S)-3,5-dimethylpiperazin-1-yl]-2-(6-methylpyrazolo[1,5-a]pyrazin-2-yl)-4H-pyrido[1,2-a]pyrimidin-4-one]"
4,3000 to 33000,"CCN(CC)C1CCN(c2ccc3nc(-c4cc5c(C)nc(C)cn5n4)cc(=O)n3c2)CC1 [compound 451, 7-[4-(diethylamino)piperidin-1-yl]-2-(4,6-dimethylpyrazolo[1,5-a]pyrazin-2-yl)-4H-pyrido[1,2-a]pyrimidin-4-one]"
5,100 to 500,"Cc1cn2nc(-c3cc(=O)n4cc(C5CCNCC5)ccc4n3)cc2c(C)n1 [compound 452, 2-(4,6-dimethylpyrazolo[1,5-a]pyrazin-2-yl)-7-(piperidin-4-yl)-4H-pyrido[1,2-a]pyrimidin-4-one]"
6,3000 to 33000,"Cc1cn2cc(-c3ccc4nc(C5CCN(C)CC5)cc(=O)n4c3)ccc2n1 [compound 460, 7-(2-methylimidazo[1,2-a]pyridin-6-yl)-2-(1-methylpiperidin-4-yl)-4H-pyrido[1,2-a]pyrimidin-4-one]"
7,3000 to 33000,"Cc1cn2cc(-c3ccc4nc(C5CCN(C(C)C)CC5)cc(=O)n4c3)ccc2n1 [compound 461, 7-(2-methylimidazo[1,2-a]pyridin-6-yl)-2-[1-(propan-2-yl)piperidin-4-yl]-4H-pyrido[1,2-a]pyrimidin-4-one]"
8,1000 to 3000,"Cc1cn2cc(-c3ccc4nc(C5CCN(C)CC5)cc(=O)n4c3)cc(F)c2n1 [compound 462, 7-(8-fluoro-2-methylimidazo[1,2-a]pyridin-6-yl)-2-(1-methylpiperidin-4-yl)-4H-pyrido[1,2-a]pyrimidin-4-one]"
9,3000 to 33000,"CN(C)c1ccc(-c2cc(=O)n3cc(C4CCNCC4)ccc3n2)cn1 [compound 465, 2-[6-(dimethylamino)pyridin-3-yl]-7-(piperidin-4-yl)-4H-pyrido[1,2-a]pyrimidin-4-one]"
